Patent US4355170A, “1-Substituted imidazole derivatives” (Ono Pharmaceutical Co., Ltd., priority 1978, dated 1982)
Where a name gives a salt, the structure may show the parent alone.

Test system: thromboxane synthetase
Test: inhibitory action for thromboxane synthetase (prior art compounds)
Assay type: biochemical
Settings: not completely satisfactory as a practical medication
From the text: However, since their inhibitory action for thromboxane synthetase is weak, these compounds are hardly applicable as practically effective medicines.
On the other hand, N-(6-methoxycarbonylhexyl)imidazole has already been synthesized by P. Matthias et al, and publicly known [Monatsch Chem., 108(5), 1059(1977)].

With `COC(=O)CCCCCCn1ccnc1` [N-(6-methoxycarbonylhexyl)imidazole] as the compound, how does the “inhibitory effect on thromboxane synthetase compared with imidazole or 1-methylimidazole” value read?
The value was “stronger inhibitory effect”.

Test system: arachidonic acid-induced sudden deaths
Test: inhibitory effect on arachidonic acid-induced sudden deaths of rabbits
Assay type: in vivo
Settings: oral administration, 100 mg/kg animal body weight

For `CC(CCCCCCn1ccnc1)C(=O)O.Cl` (racemic) [1-[(7RS)-7-carboxyoctyl]imidazole hydrochloride], which “inhibitory effect on arachidonic acid-induced sudden deaths of rabbits” value (shortened to “inhibitory effect … of rabbits”) is on record?
Its value is “inhibitory effect”.

Which “inhibitory effect … of rabbits” value does the source give for `Cl.O=C(O)CCCCC#CCn1ccnc1` [1-(7-carboxy-2-heptynyl)imidazole hydrochloride] here?
The value was “inhibitory effect”.

Which “inhibitory effect … of rabbits” value does the source give for `CC(C)(CCCCCCn1ccnc1)C(=O)O.Cl` [1-(7-carboxy-7-methyloctyl)imidazole hydrochloride] here?
The value was “inhibitory effect”.

Target: T1, thromboxane synthetase from rabbit platelet microsomes (Oryctolagus cuniculus, UniProt G1TAZ9)
T1 construct: thromboxane synthetase from rabbit platelet microsomes; from tissue; host or cells: rabbit platelet microsomes
T1 sequence (G1TAZ9 1-530): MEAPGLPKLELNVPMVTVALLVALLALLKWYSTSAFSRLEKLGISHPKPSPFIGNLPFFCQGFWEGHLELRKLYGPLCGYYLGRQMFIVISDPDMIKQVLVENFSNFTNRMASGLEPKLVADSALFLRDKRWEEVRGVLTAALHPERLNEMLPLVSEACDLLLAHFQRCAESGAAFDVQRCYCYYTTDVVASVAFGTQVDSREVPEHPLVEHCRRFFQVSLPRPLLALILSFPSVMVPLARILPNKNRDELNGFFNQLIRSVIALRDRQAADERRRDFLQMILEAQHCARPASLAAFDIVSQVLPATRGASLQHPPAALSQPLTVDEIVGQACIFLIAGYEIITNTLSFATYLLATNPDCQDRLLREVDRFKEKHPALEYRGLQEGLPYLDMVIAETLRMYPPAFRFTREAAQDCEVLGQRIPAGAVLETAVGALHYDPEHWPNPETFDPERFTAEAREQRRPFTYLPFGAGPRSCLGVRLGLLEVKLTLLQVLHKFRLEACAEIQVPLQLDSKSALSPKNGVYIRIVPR
Test: inhibition of thromboxane synthetase from rabbit platelet microsomes (conversion of prostaglandin H2 into thromboxane B2)
Assay type: biochemical
Settings: not given

Which IC50 does the source give for `CCCCC(CCCn1ccnc1)C(=O)OCC` (racemic) [1-[(4RS)-4-ethoxycarbonyloctyl]imidazole] here?
Its IC50 is 130 nM.

For `CC(CCCCCn1ccnc1)CC(=O)O` (racemic) [1-[(6RS)-7-carboxy-6-methylheptyl]imidazole hydrochloride], which IC50 is on record?
The IC50 was 48 nM.

With `CC(CCCCCCn1ccnc1)C(=O)O.Cl` (racemic) [1-[(7RS)-7-carboxyoctyl]imidazole hydrochloride] as the compound, how does the IC50 read?
Its IC50 is 30 nM.

Which IC50 does the source give for `CCOC(=O)C(C)CCCCCCn1ccnc1` (racemic) [1-[(7RS)-7-ethoxycarbonyloctyl]imidazole] here?
The IC50 was 200 nM.

For `CC(C)(CCCCCCC(=O)O)n1ccnc1` [1-(7-carboxy-1,1-dimethylheptyl)imidazole hydrochloride], which IC50 is on record?
The IC50 was 90 nM.

With `CC(C)(CCCCn1ccnc1)CCC(=O)O` [1-(7-carboxy-5,5-dimethylheptyl)imidazole hydrochloride] as the compound, how does the IC50 read?
The IC50 was 71 nM.

With `CCOC(=O)C(C)(C)CCCCCCn1ccnc1` [1-(7-ethoxycarbonyl-7-methyloctyl)imidazole] as the compound, how does the IC50 read?
The IC50 was 1000 nM.

For `O=C(O)/C=C/CCCCCn1ccnc1` [(E)-1-(7-carboxy-6-heptenyl)imidazole hydrochloride], which IC50 is on record?
Its IC50 is 70 nM.

For `CCOC(=O)/C=C/CCCCCn1ccnc1` [(E)-1-(7-ethoxycarbonyl-6-heptenyl)imidazole], which IC50 is on record?
Its IC50 is 2800 nM.

For `O=C(O)CCCC/C=C\Cn1ccnc1` [(Z)-1-(7-carboxy-2-heptenyl)imidazole hydrochloride], which IC50 is on record?
The IC50 was 56 nM.

For `O=C(O)/C=C\CCCCCn1ccnc1` [(Z)-1-(7-carboxy-6-heptenyl)imidazole hydrochloride], which IC50 is on record?
Its IC50 is 16 nM.

Test system: not listed separately
Test: acute toxicity test, LD50 in mice
Settings: mouse, in vivo, iv

With `CC(CCCCCn1ccnc1)C(C)C(=O)O.Cl` (stereo not shown) [1-(7-carboxy-6-methyloctyl)imidazole hydrochloride] as the compound, how does the LD50 read?
The LD50 was 330 mg/kg.
